Data: PMC8391421, “Identification of Novel Positive Allosteric Modulators of Neurotrophin Receptors for the Treatment of Cognitive Dysfunction” (Cells, 2021)

How the values were obtained:
[1] = tested on: extracellular neurotransmitter levels in ventral hippocampus; assay: In vivo microdialysis of neurotransmitters in ventral hippocampus; set-up: species or system rat
Method: The microdialysis experiments were conducted using Pronexus AB, Bromma, Sweden (ethical permit N24/14) on awake, freely moving Sprague Dawley rats (n = 6, 7–8 weeks old from Janvier Labs, Le Genest-Saint-Isle, France) as previously described. On the day of the microdialysis experiment, the rat was in its home cage and placed into a frame of a single-beam locomotor activity monitoring system. Locomotor activity of rats undergoing microdialysis sampling was recorded simultaneously in 5-min intervals. A microdialysis probe (Eicom A-I: 0.22 mm O.D., 4 mm membrane length with 50 kDa cut-off) was inserted into the guide cannula of the awake rat. The probe was connected with fluorinated ethylene propylene (FEP) tubing (0.1 mm I.D.) to the balancing arm of the CMA 120 system for freely moving animals (CMA/Microdialysis) equipped with a 2-channel swivel (Microbiotech/se AB, Stockholm, Sweden). […] Concentrations of acetylcholine (ACh) and glutamate (Glu) in the microdialysis samples were measured using ultra-high performance liquid chromatography tandem mass spectrometry (UHPLC-MS/MS), whereas the levels of the monoamines dopamine (DA), noradrenaline (NA), and […] (5-HT) in the microdialysates were measured using ion-exchange narrow bore column liquid chromatography with electrochemical detection as described elsewhere. […]

[2] = tested on: C57BL/6J mice; assay: Passive avoidance task; type: in vivo, mouse
Method: The passive avoidance (PA) task is an associate learning paradigm that is based on Pavlovian fear-conditioning and instrumental conditioning and conducted as previously described in male C57BL/6J mice (n = 7–8/group) from Charles River Laboratories, Sulzfeld, Germany. Vehicle or ACD855 (1, 3 or 10 mg/kg), formulated in 20% DMSO in 0.1 M sodium phosphate buffer pH 8.0, was administered daily (Days 1–4) through s.c. injections (4 mL/kg body weight). ACD856 (0.1, 0.3, 1 or 3 mg/kg) was administered by a single s.c. dose on the training day (Day 4). ACD855, ACD856, ANA-12 (0.5 mg/kg, from Sigma Aldrich, Stockholm, Sweden), physostigmine (0.025 mg/kg, from Sigma Aldrich, Stockholm, Sweden), or vehicle was administered 60 min prior to training, except for when addressing the effects on consolidation, in which case, ACD856 was dosed 5 min after the training session on day 4. Moreover, on the training day (Day 4), scopolamine or the NMDA-antagonist MK-801 (both from Sigma Aldrich, Stockholm, Sweden) at 0.3 mg/kg or vehicle was administered once s.c. 30 min prior to training. No compound was administered on the test day (Day 5), except for when addressing effects on retrieval, in which case, ACD856 was dosed 30 min prior to testing on day 5. Retention latencies and time spent in the bright compartment were determined 24 h after training (Day 5).

## Cc1cc(-n2c(=O)[nH]c(=O)n(C)c2=O)ccc1Oc1ccc(S(=O)(=O)C(F)(F)F)cc1 [ACD855, Toltrazuril-sulfone]
[1]; local infusion of 30 µM over four hours, freely moving rats, vs vehicle (aCSF)
  increase in extracellular ACh levels in vHPC: 40%
[1]; local infusion of 30 µM, vHPC
  levels of glutamate, noradrenaline, dopamine and 5-hydroxytryptamine: not affected
[2]; 3 or 10 mg/kg s.c. once daily for four days, scopolamine 0.3 mg/kg
  effect on scopolamine-induced memory impairment (time spent in bright compartment): significantly attenuate
[2]; ANA-12 0.5 mg/kg s.c.
  effect of ANA-12 on compound's reversal of scopolamine-induced memory impairment: blocked by ANA-12
[2]; MK-801 0.3 mg/kg
  effect on MK-801-induced memory impairment: ameliorate
[2]; low dose of compound plus physostigmine 0.025 mg/kg
  effect of combined administration with physostigmine on scopolamine-induced memory impairment: significantly reverse
[2]; low doses given by themselves, physostigmine 0.025 mg/kg
  effect of low dose alone on scopolamine-induced memory impairment: no significant effect
[2]; naïve young healthy animals
  pro-cognitive effects and other behavioral parameters in naive animals: none of the two compounds had any pro-cognitive effects
